From patent publication US8168628B2, “Conjugated psychotropic drugs and uses thereof” (Ramot at Tel-Aviv University Ltd., priority 2001, dated 2012)
Structures can show the parent of a compound that is named as a salt. Where two headings read alike, the source gives them in different places.

Assays:
rats [1] = experiment: Catalepsy in rats, “piano” test, oral administration; type: in vivo, rat
Description: To this end, the induced catalepsy, the prolactin blood levels and the animal behavior were measured as described hereinabove, following oral administration of either AN 168 or perphenazine alone to rats. Animals, divided 5 per cage, were treated by oral administration of perphenazine or AN-168 dissolved in 1% lactic acid. Control animals received vehicle (lactic acid) only.
The catalepsy induced by oral administration of various concentrations of AN 168 and perphenazine was measured by the “wall” test and the “piano” test described hereinabove. The time course of catalepsy was measured 4-24 hours following oral administration of 2.5, 5, 10 and 20 mg/kg perphenazine and respective equimolar doses of 3.5, 7, 14 and 28 mg/kg AN-168. The total catalepsy represents the sum of average catalepsy per treated group during the 4-24 hours of follow-up.

B16 MDR = experiment: Proliferation test, B16 MDR cells; type: cell-based, murine; conditions: Mus musculus; linear regression of survival percentage
Description: (§1) Cell lines: Human prostate carcinoma (PC-3), human colon carcinoma (HT-29), murine melanoma (B-16) and its drug resistant subclone (B-16 MDR), mouse fibroblasts (3T3), myeloid leukemia (HL 60) and its drug resistant subclone (HL 60 MX2), endometrium cell line (MES SA) and its drug resistant subclone (MES DX5), jurkat T lymphoma and monocyte leukemia (U-937), were used in this study.
(§2) Proliferation of cancer and normal cells: Proliferation was measured by neutral red assay or by a fluorometric assay quantitating DNA content. In the neutral red assay, the neutral red is absorbed by lysosomes, thus causing coloring of living cells. Quantitative analysis is performed by colorimetric assay (ELISA reader at 550 nm). In the fluorometric assay, alamar blue is used as a redox indicator. Alamar blue fluorescence was measured at an excitation wavelength of 544 nm and an emission wavelength of […] (FLUOstar BMG Lab Technologies, Offenburg, Germany).
(§3) The cells were sub-cultured and the tested compounds were added thereto in increasing concentrations. The IC50 values were determined by linear regression of the survival percentage of the cells.

B16 = experiment: Proliferation test, B16 melanoma cells; type: cell-based, murine
Description: as §1, §2, §3

Normal rat fibroblasts = experiment: Proliferation test, normal rat fibroblasts; type: cell-based; conditions: Fibroblast, linear regression of survival percentage
Description: The primary cultures of rat fibroblasts were obtained from neonatal rats using known procedures.
as §2, §3

HL 60 = experiment: Proliferation test, HL 60 cells; type: cell-based; conditions: Homo sapiens, linear regression of survival percentage
Description: as §1, §2, §3

HL 60 MX2 (MDR) = experiment: Proliferation test, HL 60 MX2 (MDR) cells; type: cell-based; conditions: Homo sapiens, HL60/MX2; linear regression of survival percentage
Description: as §1, §2, §3

MES SA DX5 (MDR) = experiment: Proliferation test, MES SA DX5 (MDR) cells; type: cell-based; conditions: Homo sapiens, linear regression of survival percentage
Description: as §1, §2, §3

Jurkat T lymphoma cells = experiment: Proliferation / viability test, Jurkat T lymphoma cells; type: cell-based; conditions: Homo sapiens
Description: as §1, §2, §3

C6 rat glioma cells [2] = experiment: Viability of C6 rat glioma cells (neutral red); type: cell-based
Description: as §2
The cells were sub-cultured and the tested compounds were added thereto in increasing concentrations, up to 100 μM.

C6 rat glioma cells [3] = experiment: Chemosensitization in C6 rat glioma cells; type: cell-based
Description: Chemosensitization: The chemosensitizing effect of perphenazine and its chemical conjugate AN 168 was measured in vitro. Various concentrations of perphenazine or AN 168 were co-administered together with a chemotherapeutic agent to either C6 rat glioma cells or to Jurkat T lymphoma cells. Cells viability and/or DNA fragmentation following treatment with either the chemotherapeutic agent, perphenazine, AN 168, a combination of the chemotherapeutic agent and perphenazine or a combination of a chemotherapeutic agent with AN 168 were measured as described hereinabove.

rats [4] = experiment: D-Amphetamine-induced hyperactivity in rats; type: in vivo, rat; conditions: i.p., amphetamine 2.5 mg/kg i.p.
Description: D-Amphetamine-induced hyperactivity in rats: The efficacy of the chemical conjugates of the present invention was studied using the D-amphetamine-induced hyperactivity and motility model, which is known as one of the most established animal models for schizophrenia.
Naïve Wistar male rats were placed in individual boxes. In each experiment 4 rats were studied. Perphenazine or equimolar doses of its chemical conjugate AN-168 were administered intraperitoneally (ip) to the rats 30 minutes prior to intraperitoneal administration of amphetamine (2.5 mg/kg), or 90 minutes prior to oral administration of amphetamine (2.5 mg/kg). The animals locomotor activity was assessed using two parameters: climbing attempts of the animal on the barrel walls (as big movements) and head movement of the animal (as small movements). Assessment was recorded every 15 minutes for two hours. Each animal was tested at each time point for 120 seconds.
The climbing behavior of the rats in each group was measured as described hereinabove.

[5] = Stability upon prolonged storage (NMR); type: physicochemical; conditions: about 3 months storage; NMR spectroscopy
rats [6] = conditions: rat, in vivo
Description: Animals: Young adult male rats (150-230 grams) were purchased from Harlan (Israel). Animals were divided 2-5/cage and housed in controlled conditions in the animal room for a week prior to the experiments. The experiments were conducted with naive animals, in a double blind procedure. In each experiment various treatment groups (about 5-10 animals each) were tested.
Catalepsy in rats: The manifestation of the extrapyramidal adverse effects induced by typical neuroleptics was evaluated by the appearance of stereotypic cataleptic behavior in rats following the neuroleptic treatment. Catalepsy was determined by two methods: (i) by measuring the time it took an animal hanging on a cage wall to move its hind legs and reach a flat surface (the “wall” test); and (ii) rats were placed on a flat surface with their anterior limbs leaning on a flat bar (5.5 cm height) resembling a piano playing position. Catalepsy was determined by the time it took an animal to descend and reach the flat surface (the “piano” test). The maximum time of follow up was 2 minutes and these measurements were performed hourly and individually for each animal. These tests provide an assessment of central dopamine (DA) blocking activity and are acceptable criteria for extrapyramidal symptoms induced by anti-psychotic drugs [10].
A control animals group was treated with the vehicle (lactic acid) only.

rats [7] = experiment: Behavioral criteria: sedation and mobility score in rats; conditions: score 0-3; for Sedation score: oral, 4-6 hours after treatment
Description: The effect of the administration of the tested compound on animals behavior was measured by evaluating the degree of animal sedation and mobility following the treatment described hereinabove, using a score of from 0 to 3. A score of 0 represents active and mobile animals, 1 represents calm and mobile animals, 2 represents calm and immobile animals and 3 represents completely ataxic and non-alert animals.

[8] = C6 glioma (MDR) cells, 24 hours (FIG. 14)

NCCCC(=O)OCCN1CCN(CCCN2c3ccccc3Sc3ccc(Cl)cc32)CC1 [AN-168, Perphenazine 4-aminobutyrate Trihydrochloride]
time course of catalepsy (rats [1]; oral, 3.5-28 mg/kg AN 168 vs equimolar perphenazine, 4-6 hours (FIG. 8a)): consistent reduction in the cataleptic behavior at all concentrations | total catalepsy (rats [1]; oral, 5, 10, 20 mg/kg perphenazine, 7, 14, 28 mg/kg AN-168, 4-6 hours (FIGS. 9a, 9b)): consistently lower than that induced by perphenazine | time course of catalepsy, experiments conducted 3 months later (rats [1]; oral, 14 and 28 mg/kg AN 168, 4-6 hours (FIG. 8b)): higher catalepsy was induces as compared with the proceeding experiments | IC50 (B16 MDR): 23 ± 16 µM | IC50 (B16; Mus musculus, B16, linear regression of survival percentage): 26.8 ± 1.8 µM | effect on the proliferation of B16 murine melanoma cells (B16; representative experiment (FIG. 13)): relatively active as anti-proliferative drugs | IC50 (Normal rat fibroblasts): 45.8 µM | IC50 (HL 60): 15.1 µM | IC50 (HL 60 MX2 (MDR)): 18.4 µM | IC50 (MES SA DX5 (MDR)): 17.2 µM | IC50 (Jurkat T lymphoma cells; alamar blue method (FIG. 15), read-out: IC50, Jurkat T lymphoma cells viability): 19 µM | IC50 (Jurkat T lymphoma cells; linear regression of survival percentage, read-out: IC50, JURKAT): 11.3 µM | anti-proliferative activity in C6 glioma cells (C6 rat glioma cells [2]; [8]): high anti-proliferative activity | concentration causing substantial cell death (C6 rat glioma cells [2]; [8]): about 20 μM | IC50 (C6 rat glioma cells [2]; Rattus norvegicus, Glioma cell, 24 hours treatment, neutral red, up to 100 μM (FIG. 14)): 24.2 µM | chemosensitizing effect, co-administration with Vincistine (C6 rat glioma cells [3]; 24 hours, Vincistine 30 μM, conjugate even at 5 μM (FIG. 16)): substantially enhance the cytotoxic effect thereof | cells viability, combined treatment of Cisplatin and AN 168 (C6 rat glioma cells [3]; Cisplatin 5-50 μM plus 10 and 15 μM AN 168, neutral red (FIG. 17)): rendered the cells susceptible to the chemotherapeutic drug | D-amphetamine-induced climbing behavior (rats [4]; AN-168 0.5 or 1.5 mg/kg, two hours (FIGS. 22, 23)): completely antagonized the climbing behavior induced by amphetamine even at low doses | D-amphetamine-induced head movements and other small body movement (rats [4]; two hours (FIGS. 24, 25)): inferior to that of perphenazine | stability upon prolonged storage [5]: slow decomposition, probably due to hydrolysis, occurred | time course of catalepsy (rats [6]; male, ip): no catalepsy through the entire 7 hours period | time course of catalepsy, conjugate versus mixture (rats [6]; male, ip, 120 min): abolished after 120 minutes | average of total catalepsy as percentage of the perphenazine-induced catalepsy (rats [6]): reduced the induced catalepsy to almost a zero value | total catalepsy, conjugate versus mixture (rats [6]; ip): very low catalepsy | induced catalepsy, SAR studies (rats [6]; ip, 5 mg/kg): almost maximal reduction of induced catalepsy | total catalepsy (rats [6]; ip, 5 mg/kg): did not induce catalepsy at all | total catalepsy (rats [6]; po): cataleptic symptoms were almost abolished | sedation and mobility score, 30 min (rats [7]; i.p., 5 mg/kg perphenazine, 7.5 mg/kg fluphenazine or equimolar conjugate, 30 min): 0 | sedation and mobility score, 60 min (rats [7]; i.p., 5 mg/kg perphenazine, 7.5 mg/kg fluphenazine or equimolar conjugate, 60 min): 0 | sedation and mobility score, 90 min (rats [7]; i.p., 5 mg/kg perphenazine, 7.5 mg/kg fluphenazine or equimolar conjugate, 90 min): 1 | sedation and mobility score, 120 min (rats [7]; i.p., 5 mg/kg perphenazine, 7.5 mg/kg fluphenazine or equimolar conjugate, 120 min): 1 | sedation and mobility score, 180 min (rats [7]; i.p., 5 mg/kg perphenazine, 7.5 mg/kg fluphenazine or equimolar conjugate, 180 min): 1 | sedation and mobility score, 240 min (rats [7]; i.p., 5 mg/kg perphenazine, 7.5 mg/kg fluphenazine or equimolar conjugate, 240 min): 1 | Sedation score (rats [7]; 3.5 mg/kg): 0 | Sedation score (rats [7]; 7 mg/kg): 0 | Sedation score (rats [7]; 14 mg/kg): 1 | Sedation score (rats [7]; 28 mg/kg): 2
